Assay [1] deals with c-Jun phosphorylation. The assay is described as follows: High throughput microscopy of c-Jun phosphorylation in A375 cells. In kind it is cell-based. Particulars: A375 cells, anisomycin stimulation; read-out: p-c-Jun EC50 (nM) A375. The protocol:
Cells were fixed in 2% paraformaldehyde for 10 min at room temperature and washed with PBS-T (Phosphate Buffered Saline, 0.1% Tween 20). Cells were permeabilized in methanol for 10 min at room temperature, washed with PBS-T, and blocked in Odyssey Blocking Buffer (LI-COR Biosciences) for 1 hour at room temperature. Cells were incubated overnight at 4° C. with antibody specific for Erk1/2(pT202/pY204), Akt(pS473), c-Jun(pS73), pP38(T180/Y182) and pSTAT3(Y705) (Cell Signaling Technology), pRSK1(S380) and pMSK1(S376) (Epitomics), and NF-κB (Santa Cruz Biotechnology) diluted 1:400 in Odyssey Blocking Buffer. […] Cells were washed twice with PBS and imaged in an imageWoRx high-throughput microscope (Applied Precision). Data were plotted using DataPflex.
(§1) In parallel with biochemical evaluation, the ability of the compounds to inhibit JNK activity in cells was investigated using two independent assays formats. This is a critical issue because there are several reported JNK inhibitors with nanomolar biochemical potency that translate into micromolar cellular inhibitors. The most well characterized direct phosphorylation substrate of JNK is the transcription factor c-Jun.

For a further assay, the target named is JNK1 (Homo sapiens, UniProt P45983). The note with it: Table 2, *Literature values; cited from earlier work.
JNK1, sequence (P45983 whole entry): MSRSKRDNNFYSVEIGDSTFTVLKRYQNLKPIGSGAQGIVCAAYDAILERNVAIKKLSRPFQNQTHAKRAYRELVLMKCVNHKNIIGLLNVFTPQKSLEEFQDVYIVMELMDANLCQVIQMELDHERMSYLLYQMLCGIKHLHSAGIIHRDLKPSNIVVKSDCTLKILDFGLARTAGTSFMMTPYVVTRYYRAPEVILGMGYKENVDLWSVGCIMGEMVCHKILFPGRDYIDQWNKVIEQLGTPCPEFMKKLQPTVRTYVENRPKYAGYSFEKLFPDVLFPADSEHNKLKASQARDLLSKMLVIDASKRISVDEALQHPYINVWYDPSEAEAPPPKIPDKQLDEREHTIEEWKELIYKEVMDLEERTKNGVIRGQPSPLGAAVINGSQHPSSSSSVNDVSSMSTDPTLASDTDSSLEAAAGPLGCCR
For assay [2], the system named is c-Jun phosphorylation. The assay is described as follows: LanthaScreen TR-FRET cell assay for c-Jun phosphorylation in HeLa cells. In kind it is cell-based. The protocol:
Phosphorylation was determined by measuring the time resolved FRET (TR-FRET) between a terbium labeled phospho-c-Jun specific antibody and GFP. The cells were plated in white tissue culture treated 384 well plates at a density of 10,000 cell per well in 32 μL assay medium (Opti-MEM®, supplemented with 0.5% charcoal/dextran-treated FBS, 100 U/ml penicillin and 100 μg/ml streptomycin, 0.1 mM nonessential amino acids, 1 mM sodium pyruvate, 25 mM Hepes, pH 7.3, and lacking phenol red). After overnight incubation, cells were pretreated for 90 minutes with compound (at indicated concentration) diluted in 4 μL assay buffer followed by 30 min of stimulation with 5 ng/ml of TNF-α in 4 μL assay buffer (final assay volume was 40 μl). The medium was then removed by aspiration, and the cells were lysed by adding 20 μl of lysis buffer (20 mM Tris-HCl, pH 7.6, 5 mM EDTA, 1% Nonidet P-40 substitute, 5 mM NaF, 150 mM NaCl, and 1:100 protease and phosphatase inhibitor mix, SIGMA P8340 and P2850, respectively). The lysis buffer included 2 nM of the terbium-labeled anti-c-Jun (pSer73) detection antibodies (Life Technologies). After allowing the assay to equilibrate for 60 minutes at room temperature, TR-FRET emission ratios were determined on a BMG Pherastar fluorescence plate reader (BMG Labtech, Cary, N.C.) using the following parameters: excitation at 340 nm; emission at 520 nm and 490 nm; 100 μs lag time; 200 μs integration time; and emission ratio=Em520/Em490. All data were analyzed and plotted using Graphpad Prism 4.
as §1
(In general: Time-resolved FRET reads energy transfer from a long-lived donor to a nearby acceptor.)

A further assay deals with JNK2 (Homo sapiens, UniProt P45984). The note with it: Table 2, *Literature values; cited from earlier work.
JNK2, sequence (P45984 whole entry): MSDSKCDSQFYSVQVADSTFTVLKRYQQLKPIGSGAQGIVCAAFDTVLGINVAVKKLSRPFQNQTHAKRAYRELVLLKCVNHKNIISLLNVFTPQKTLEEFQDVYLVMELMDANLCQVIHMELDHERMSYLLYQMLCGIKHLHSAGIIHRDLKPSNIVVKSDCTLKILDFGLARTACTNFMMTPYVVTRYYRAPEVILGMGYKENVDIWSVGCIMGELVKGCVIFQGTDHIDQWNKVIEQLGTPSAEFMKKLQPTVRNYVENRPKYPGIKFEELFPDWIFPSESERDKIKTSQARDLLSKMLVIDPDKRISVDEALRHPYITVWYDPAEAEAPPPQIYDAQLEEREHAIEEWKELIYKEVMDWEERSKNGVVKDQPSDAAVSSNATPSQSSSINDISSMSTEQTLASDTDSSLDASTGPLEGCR

This is an account of results in patent US10144730B2, “Inhibitors of c-Jun-N-terminal kinase (JNK)” (Dana-Farber Cancer Institute, Inc., priority 2011, dated 2018).

One may read the EC50 as the concentration at which the effect is half-maximal. One may read the IC50 as the concentration at which inhibition is half-maximal.

Regarding `N#CC(c1ccnc(NCCc2cccnc2)n1)c1nc2ccccc2s1` (centres unmarked) [AS601245, reference compound], the EC50 in the assay on c-Jun phosphorylation [1] was determined as 2400 nM; with c-Jun phosphorylation [2] (Hela cells, TNF-α stimulation, read-out: p-c-Jun EC50 (nM) Hela), 2020 nM. Also, the IC50 is 150 nM at JNK1 and 220 nM on JNK2. Further, the “IC50's for c-Jun phosphorylation in both cellular assay formats” value with c-Jun phosphorylation [2] (HeLa and A375 formats, tested in parallel) was “micromolar range”.
